# Like-named read-outs stand apart in the source and are kept apart here.
# How the values were obtained:
# [1] = pharmacokinetic study of GJG-derived compounds in rat plasma (LC-MS/MS); type: in vivo; conditions: for Cmax / Tmax: rat plasma after oral GJG 1.0 g/kg, mean ± S.D.; for time for which the high plasma concentration was maintained: after oral administration of GJG; for time at which maximum plasma concentration (Cmax) was reached: after oral administration of GJG 1.0 g/kg
# Method: Rats cannulated in the jugular vein were fasted for more than 16 hours with access to water. At the time of 0.083, 0.25, 0.5, 1, 2, 4 and 8 hours after oral administration of GJG (1.0 g/10 mL/kg), blood samples were collected with a heparin-coated syringe and centrifuged at 3000 rpm for 15 minutes at 4 °C. The plasma samples were pretreated by precipitating plasma protein with an organic solvent or by solid-phase extraction and injected into the LC-MS/MS system for analysis. Components of GJG in plasma were measured by a QTRAP®5500 system (AB SCIEX, Tokyo, Japan) equipped with an Agilent 1260 HPLC system (binary pump, online degasser, auto plate-sampler and column oven; Agilent Technologies, Tokyo, Japan). The lower limits for quantification were 0.001 ng/mL for benzoylaconine, benzoylmesaconine, benzoylhypaconine; 0.002 ng/mL for 14-anisoylaconine; 0.2 ng/mL for loganin and morroniside; 0.5 ng/mL for paeoniflorin; and 5 ng/mL for catalpol. Cmax and time to reach maximum plasma concentration (Tmax) as pharmacokinetic parameters were calculated based on the plasma concentration of each compound by Phoenix WinNonlin (version 6.3; Certara L.P., St. Louis, MO, USA).
# neuro2A cells = conditions: for oxaliplatin-induced ROS generation: co-administration with oxaliplatin, 100 μM (first screening), 1–100 μM (second screening), 1 h; for oxaliplatin-induced ROS generation, effect of antioxidants: Supplementary Figure S1; for ROS generation in neuro2A cells by metabolites of oxaliplatin: data not shown
# SHSY-5Y cells = tested on: SHSY-5Y cells; set-up: method as in PMID 21241762, PMID 19379729, PMID 24263411; conditions: cited from earlier work
SMILES,Cmax [1] [ng/mL],Tmax [1] [min],oxaliplatin-induced ROS generation (neuro2A cells),time at which maximum plasma concentration (Cmax) was reached [1] [min],Cmax ([1]; read-out: Cmax) [ng/mL],Tmax ([1]; read-out: Tmax) [min],other results
"CCN1C[C@]2(COC)[C@H](O)C[C@H](OC)C34C1C([C@H](OC)[C@@H]32)[C@]1(O)[C@@H]2[C@H]4C[C@@](O)([C@@H]2OC(=O)c2ccc(OC)cc2)[C@@H](OC)[C@@H]1O [14-Anisoylaconine, 14-anisoylaconine]",0.009 ± 0.000,18.6 ± 7.8,significantly decreased,,,,
"CCN1C[C@]2(COC)[C@H](O)C[C@H](OC)[C@@]34[C@@H]5C[C@@]6(O)[C@H](OC(=O)c7ccccc7)[C@@H]5[C@@](O)([C@@H]([C@H](OC)[C@H]23)[C@@H]14)[C@@H](O)[C@@H]6OC [Benzoylaconine, benzoylaconine]",0.012 ± 0.002,30 ± 0,,,,,
"COC[C@@]12CC[C@H](OC)[C@]34C([C@H]([C@H](OC)[C@H]13)[C@]1(O)[C@H]3[C@@H](OC(=O)c5ccccc5)[C@](O)(C[C@H]34)[C@@H](OC)[C@@H]1O)N(C)C2 [Benzoylhypaconine, benzoylhypaconine]",0.013 ± 0.001,30 ± 0,,,,,
"COC[C@]12CN(C)C3[C@@H]4[C@H](OC)[C@H]1[C@@]3([C@@H](OC)C[C@H]2O)[C@@H]1C[C@@]2(O)[C@H](OC(=O)c3ccccc3)[C@@H]1[C@]4(O)[C@@H](O)[C@@H]2OC [Benzoylmesaconine, benzoylmesaconine]",0.041 ± 0.006,26.4 ± 7.8,,,,,
"OC[C@H]1O[C@@H](O[C@@H]2OC=C[C@H]3[C@H](O)[C@@H]4O[C@]4(CO)[C@@H]23)[C@H](O)[C@@H](O)[C@@H]1O [Catalpol, catalpol]",,,,60,282 ± 119,60 ± 33,time for which the high plasma concentration was maintained [1]: 4 h
"COC(=O)C1=CO[C@@H](O[C@@H]2O[C@H](CO)[C@@H](O)[C@H](O)[C@H]2O)[C@@H]2[C@@H](C)[C@@H](O)C[C@H]12 [Loganin, loganin]",,,significantly decreased,30,43.7 ± 25.7,34.8 ± 12,time for which the high plasma concentration was maintained [1]: 4 h; ROS production induced by H2O2 or amyloid β 25–35 peptide (SHSY-5Y cells): attenuate ROS production
"COC(=O)C1=CO[C@@H](O[C@@H]2O[C@H](CO)[C@@H](O)[C@H](O)[C@H]2O)[C@@H]2[C@H](C)O[C@@H](O)C[C@H]12 [Morroniside, morroniside]",,,significantly decreased,30,53.7 ± 26.9,40.2 ± 15.6,"time for which the high plasma concentration was maintained [1]: 4 h; ROS production induced by H2O2 or amyloid β 25–35 peptide (SHSY-5Y cells): attenuate ROS production; rank of anti-ROS action among active components (neuro2A cells; among LO, MO, PF and 14-AA): strongest action"
CC(=O)N[C@@H](CS)C(=O)O [N-acetyl cysteine],,,,,,,"oxaliplatin-induced ROS generation, effect of antioxidants (neuro2A cells): inhibited"
"C[C@@]12C[C@@]3(O)O[C@@H](O1)[C@]1(COC(=O)c4ccccc4)[C@H]3C[C@@]12O[C@@H]1O[C@H](CO)[C@@H](O)[C@H](O)[C@H]1O [Paeoniflorin, paeoniflorin]",,,significantly decreased,30,9.1 ± 1.2,34.8 ± 12,ROS production induced by H2O2 or amyloid β 25–35 peptide (SHSY-5Y cells): attenuate ROS production
"[Cl][Pt+2][Cl].[NH-]C1CCCCC1[NH-] (centres unmarked) [Pt(dach)Cl2, dichloro (1,2-diaminocyclohexane) platinum]",,,,,,,ROS generation in neuro2A cells by metabolites of oxaliplatin (neuro2A cells): increased ROS generation
N[C@@H](CCC(=O)N[C@@H](CS)C(=O)NCC(=O)O)C(=O)O [glutathione],,,,,,,"oxaliplatin-induced ROS generation, effect of antioxidants (neuro2A cells): inhibited"
O=C(O)C(=O)O [oxalate],,,,,,,ROS generation in neuro2A cells by metabolites of oxaliplatin (neuro2A cells): did not

# Source: PMC4635352, “Preventive effect of oral goshajinkigan on chronic oxaliplatin-induced hypoesthesia in rats” (Scientific Reports, 2015)
